According to patent US8697629B2, “Modulation of intracellular signaling” (Angstrom Pharmaceuticals, Inc., priority 2010, dated 2014):
“Also recorded” adds a separate entry of the source.

Columns and labels:
SKOV3 cells = test: Boyden chamber chemotaxis/migration of SKOV3 cells; format: cell-based
Protocol: A2780 (FIG. 10a) and SKOV3 (FIG. 10b) cells were incubated with the indicated concentrations of Å6 peptide for 30 min at 37° C. Aliquots representing 6,000 cells were placed on quadruplicate, CnI-coated filters (8 μm pores) in Boyden chambers and the cells allowed to migrate overnight in response to 10 ng/ml VEGF in NIH3T3-conditioned media containing the indicated concentrations of Å6. Upon completion of migration, the apical surfaces of the membranes were wiped clean and the migrating cells on the basal surface were stained with Geimsa stain and the cells present in representative fields of the membranes counted. Data represent the averages+/−standard deviations obtained from the replicate filters. […] This provides further confirmation that CD44 is the target for the Å6 peptide.
SKOV3 cells are harvested by trypsinization and washed once with RPMI−0.5% BSA. Next, the cells are re-suspended in RPMI+0.5% BSA @ 6E4/mL (6000 cells/100 μL). The peptide is pre-treated with 500 μL of cells added to 500 μL peptide NASAPPEE (2× concentration, final conc. at 100, 10, 1, 0.1, 0.01, 0.001 uM) and the mixture incubated 30 minutes at 37° C., under 5% CO2. The Boyden chamber is assembled by: Placing in the bottom chambers: 220 μL of serum/BSA free DMEM or NIH3T3CM+10 ng/ml VEGF or NIH3T3CM+10 ng/ml VEGF+peptide. Place 8 μm filters on the top of the bottom chambers. The 8 μm filters are coated with 1 mg/ml collagen I at 4° C. overnight, washed with PBS twice, air dry before use. Add 200 μL of cells with or without peptide pretreatment to the top of Boyden chamber. Note that the peptide is in both top and bottom chambers. Cells migrate overnight at 37° C., under 5% CO2 in incubator. Next, Boyden chambers are disassembled the and filters collected. The cells on the filters after collection are treated with −20° C. methanol for 3 minutes at room temperature and stained with 30% Geimsa for 7 minutes at room temperature, and washed with water twice. The filters are mounted on slides, air dried and the cells counted.
Cell numbers were obtained by counting the cells in four fields of filters using a 40× objective. The cells migrating into the bottom chambers were also counted as follows: a) 200 μL fluid in the bottom chamber was transferred to a well of 96-well plate; b) The plate was centrifuged at 1200 rpm for 5 minutes; c) 180 μL of supernatant was removed; d) The cell pellet was resuspended with the remaining 20 μL fluid and the cells counted using a hemocytometer. […] This compares favorably to the Å6 peptide which is effective between 5 μM and 100 nM.

CD44 = biological target: T1, CD44 (Homo sapiens, UniProt P16070); test: Immunoprecipitation of Å6Cbiotin-crosslinked SKOV3 polypeptides, HRP-SA blotting; format: binding; details: SKOV3 cells, 100 μM Å6Cbiotin, BS3 crosslinking, DF1485 anti-CD44
T1 construct: endogenous in cells; host or cells: SKOV3 cells
Protocol: In FIGS. 1 and 2 SKOV3 cells were incubated with or without 100 μM Å6Cbiotin (Å6CbioXL and ConXL, respectively) for 30 min at 4° C. The cells were then crosslinked with 5 mM bis(sulfosuccinimidyl) suberate (Sulfo-DSS or BS^3) for 30 min at 4° C. and Triton X-100 lysates generated. The lysates were pre-cleared by incubating with Protein A-agarose for 2 hr at room temperature. Aliquots representing 100 μg of the cleared lysates were then incubated overnight at room temperature with 20 μL of Protein A-agarose plus 2 μg of anti-Tenascin R (TnR; E-18, Santa Cruz Biotech.), anti-Tenascin C (TnC; 300-3, Santa Cruz Biotech.), anti-CD44 (DF1485, Santa Cruz Biotech.), anti-Plexin-A1 (Pl A1; H-60, Santa Cruz Biotech.) or murine IgG1 (Sigma Chem. Co.). After washing 5 times with lysis buffer, the immunoprecipitated polypeptides were eluted from the Protein A-agarose by boiling in SDS-PAGE sample buffer. The eluted material and 2 μg aliquots of the starting material were then subjected to SDS-PAGE, transfer to PVDF membranes and blotting with chemiluminescent horseradish peroxidase (HRP)-conjugated streptavidin (HRP-SA).
In FIG. 3 SKOV3 cells were incubated with or without 100 μM Å6Cbiotin (Å6CbioXL and control, respectively) for 30 minutes at 4° C. The cells were then crosslinked with 5 mM BS3 for 30 min at 4° C. […]

T1 sequence (P16070 21-742): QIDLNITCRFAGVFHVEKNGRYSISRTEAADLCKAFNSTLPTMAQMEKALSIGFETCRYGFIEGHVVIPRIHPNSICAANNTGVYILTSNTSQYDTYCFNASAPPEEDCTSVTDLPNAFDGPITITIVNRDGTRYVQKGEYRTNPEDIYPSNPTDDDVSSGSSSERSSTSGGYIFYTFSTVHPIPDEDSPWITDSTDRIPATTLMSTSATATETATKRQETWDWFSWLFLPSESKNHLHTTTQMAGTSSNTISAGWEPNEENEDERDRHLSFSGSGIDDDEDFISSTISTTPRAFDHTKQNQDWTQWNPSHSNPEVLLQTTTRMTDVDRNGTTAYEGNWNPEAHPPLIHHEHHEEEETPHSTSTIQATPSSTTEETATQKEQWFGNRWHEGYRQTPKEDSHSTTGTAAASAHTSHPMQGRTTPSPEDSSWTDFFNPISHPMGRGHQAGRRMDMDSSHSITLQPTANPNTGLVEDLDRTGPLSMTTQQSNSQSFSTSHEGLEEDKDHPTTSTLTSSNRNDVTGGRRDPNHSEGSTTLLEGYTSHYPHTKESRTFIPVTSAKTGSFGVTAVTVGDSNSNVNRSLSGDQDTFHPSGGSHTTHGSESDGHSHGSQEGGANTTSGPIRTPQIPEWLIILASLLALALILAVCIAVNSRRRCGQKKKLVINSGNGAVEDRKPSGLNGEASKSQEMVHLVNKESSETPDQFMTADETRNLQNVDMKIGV

acetyl-Lys-Pro-Ser-Ser-Pro-Pro-Glu-Glu-NH2 (Ac-KPSSPPEE-NH2) [Å6]
SKOV3 migration (SKOV3 cells; 10 ng/ml VEGF in NIH3T3-conditioned media, overnight): strong inhibition
cell migration inhibition, lower end of effective concentration range (SKOV3 cells; SKOV3): 100 nM
cell migration inhibition, upper end of effective concentration range (SKOV3 cells; SKOV3): 5 µM
target of the peptide identified by anti-CD44 immunoprecipitation (CD44): targets CD44; also recorded: confirm CD44 as the target
